Results on three molecules are retold here after patent US20160052936A1, “SPIROINDOLINE DERIVATIVES FOR USE AS GONADOTROPIN-RELEASING HORMONE RECEPTOR ANTAGONISTS” (BAYER PHARMA AKTIENGESELLSCHAFT, priority 2013, published 2016).

One assay addresses T1, human GnRHR (Homo sapiens, UniProt P30968).
T1 construct: own knowledge: Tag-lite cells usually carry an N-terminal SNAP-tag fusion; host or cells: Hek293 cells, transiently transfected, supplied frozen
T1 sequence (P30968 1-328): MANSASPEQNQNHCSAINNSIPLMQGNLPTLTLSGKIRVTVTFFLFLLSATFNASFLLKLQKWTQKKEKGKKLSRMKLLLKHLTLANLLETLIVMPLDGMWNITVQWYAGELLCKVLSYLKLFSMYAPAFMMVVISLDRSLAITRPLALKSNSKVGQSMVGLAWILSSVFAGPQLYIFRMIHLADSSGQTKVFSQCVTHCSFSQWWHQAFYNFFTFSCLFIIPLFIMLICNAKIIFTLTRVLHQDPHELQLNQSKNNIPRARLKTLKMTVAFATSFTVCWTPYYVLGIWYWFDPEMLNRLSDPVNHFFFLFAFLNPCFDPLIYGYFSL
In words: Tag-Lite receptor binding assay. The conditions noted are these: Hek293 cells transiently transfected with human GnRHR; displacement of green-labelled GnRHR binding peptide; read-out: Potency in receptor binding assay using TAG-LITE technology, given as IC50. An excerpt:
2.2. Tag-Lite® Receptor Binding Assay
This binding assay is based on the fluorescence resonance energy transfer between fluorescence donor labelled human GnRHR and a green-labelled GnRHR binding peptide. Compounds interfering with the ligand binding side of the human GnRHR will replace the labelled peptide resulting in a signal decrease. The assay principle was established by Cisbio Bioassays (Bagnols-sur-Cèze Cedex, France) and further details are available on their homepage.
The assay procedure was further optimized for use in-house with reduced assay volumes. Frozen Hek293 cells, transiently transfected with human GnRHR and Terbium-labelling of the receptor, were supplied by Cisbio Bioassays as well as Tag-Lite buffer and green-labelled GnRHR binding peptide. Cells were thawed and transferred to cold Tag-Lite buffer. A volume of 8 μl of this cell suspension were added to 100 nl of a 160-fold concentrated solution of the test compound in DMSO pre-dispensed in a well of a white low-volume 384-well microtiter plate (Greiner Bio-One, Frickenhausen, Germany). The mixture was incubated for 5 min at room temperature. In the next step either 4 μl Tag-Lite buffer or as control 4 μl of an exceeding amount unlabelled binding peptide in Tag-Lite buffer were transferred to the mixture. The green-labelled GnRHR binding peptide was added in a final step at EC50 in a volume of 4 μl Tag-Lite buffer. After an incubation of 1 h at room temperature plates were measured in a microplate reader, e.g. a PHERAstar (BMG Labtechnologies, Offenburg, Germany) by using a specific optic module.
A ratio from the fluorescence emissions at 520 nm (green fluorescence) and at 490 nm (background signal of Terbium-labelled GnRHR) was calculated and the data were normalized (reaction without test compound=0% inhibition of binding of green-labelled peptide; reaction without test compound with exceeding amount unlabelled binding peptide=100% inhibition of binding of green-labelled peptide). On the same microtiter plate, compounds were tested at 10 different concentrations in the range of 12.5 μM to 0.64 nM (12.5 μM, 4.2 μM, 1.4 μM, 0.46 μM, 0.15 μM, 51 nM, 17 nM, 5.7 nM, 1.9 nM and 0.64 nM; dilution series prepared before the assay at the level of the 160-fold conc. stock solutions by serial 1:3 dilutions in 100% DMSO) in duplicate values for each concentration. By using an in-house software, the IC50 values were calculated by a 4 parameter fit.

The test system of assay [1] is LH level in ovariectomized rats. As to the kind of experiment: LH suppression in the ovariectomized rat. Format: in vivo. To be noted: for LH suppression: 8 hours after administration. From the text: 2.5. LH Suppression in the Ovariectomized Rat
The in vivo potency of GnRH antagonists can be quantified by a LH suppression test in ovariectomized rats. GnRH triggers the LH release from the pituitary mediated by GnRH receptors. Ovarectomy of adult female rats results in elevated levels of circulating LH due to a lack of negative feedback by gonadal steroids. GnRH antagonists suppress the release of LH and accordingly suppression of LH levels can be used to quantify the in vivo potency of GnRH antagonists.
Female adult rats were ovariectomized surgically and they were allowed to recover for at least one week. The animals received 0.5 mg/kg, 3 mg/kg or 10 mg/kg of Example 3.1 by single per oral administration. For comparison reasons a vehicle control and a positive control, 0.1 mg/kg cetrorelix (i.p.), were given once. At 0 min, 15 min, 30 min, 1 hour, 2 hours, 4 hours, 8 hours and 24 hours after compound administration blood was taken from the retro orbital plexus (n=6 per blood withdrawal) for the measurement of serum LH and serum compound levels.
As nonbinding explanatory example of compounds according to the invention FIG. 1 represents the LH level following administration of the compound according to Example 3.1, to ovariectomized adult rats. [Filled circle: Vehicle; Circle, dotted black line: Cetrorelix (0.1 mg/kg); Triangle: Example 3.1 (0.5 mg/kg); Reverse triangle: Example 3.1 (3 mg/kg); Diamond: Example 3.1 (10 mg/kg)]. Values are given as mean+standard deviation (n=6).

Usually IC50 stands for the concentration that gives 50% inhibition. With `O=C(NCc1ncc(C(F)(F)F)cc1F)c1ccc2c(c1)C1(CCS(=O)(=O)CC1)[C@H](C1CC1)N2S(=O)(=O)c1ccc(F)cc1` (single isomer, unassigned) [Example 1.1], the IC50 at human GnRHR is 230 nM.

With `N#Cc1cccc(S(=O)(=O)N2c3ccc(C(=O)NCc4ncc(C(F)(F)F)cc4Cl)cc3C3(CCS(=O)(=O)CC3)[C@@H]2C2CC2)c1` (single isomer, unassigned) [Example 10.1], the IC50 on human GnRHR amounted to 10.3 nM.

As to `O=C(NCc1ncc(C(F)(F)F)cc1Cl)c1ccc2c(c1)C1(CCS(=O)(=O)CC1)[C@H](C1CC1)N2S(=O)(=O)c1ccc(F)cc1` [Example 3.1, (2S)—N-{[3-chloro-5-(trifluoromethyl)pyridin-2-yl]methyl}-2-cyclopropyl-1-[(4-fluorophenyl)sulfonyl]-1,2,2′,3′,5′,6′-hexahydrospiro[indole-3,4′-thiopyran]-5-carboxamide 1′,1′-dioxide], the LH suppression in assay [1] (0.5 mg/kg single per oral administration) amounted to 19%; in assay [1] (3 mg/kg single per oral administration), 48%; in assay [1] (10 mg/kg single per oral administration), 90%. Besides, in assay [1] (per oral administration), the “in vivo GnRH antagonist activity (conclusion)” value is “orally active GnRH antagonist in vivo”. In addition, the IC50 at human GnRHR was found to be 16.7 nM.
